Values quoted from earlier work as cited in PMC8954523 (Pharmaceutics, 2022).
≈ marks a conversion by molar mass, not a printed value.

Assays:
[1] = 298.15 K; cited from earlier work
[2] = ref 31; cited from earlier work

SMILES | aqueous solubility [1] [µM] | log DCoct/w [2]
CNC(=O)c1ccc(N2C(=S)N(c3cnc(C#N)c(C(F)(F)F)c3)C(=O)C23CCC3)cc1F [apalutamide] | 7.78 (≈ 3.71 µg/mL) | 3.90
CNC(=O)c1ccc(N2C(=S)N(c3ccc(C#N)c(C(F)(F)F)c3)C(=O)C2(C)C)cc1F [enzalutamide] | 3.92 (≈ 1.82 µg/mL) | 4.02
